# In patent US20230242534A9, “INHIBITORS OF CYCLIN-DEPENDENT KINASE 7 AND USES THEREOF” (Dana-Farber Cancer Institute, Inc., priority 2019, published 2023):
# Read-outs that look alike come from different tables or passages of the source.
# Key:
# CDK7: cyclin H and MNAT1 = biological target: T1, CDK7: cyclin H and MNAT1 (Homo sapiens, UniProt P50613); assay: Invitrogen CDK7 assay (kinase inhibition); type: biochemical; details: co-factors cyclin H and MNAT1, read-out: IC50 against CDK7
# T1 construct: purchased Invitrogen
# Method: Compounds were assayed using Invitrogen CDK7 assay against a variety of kinases. Exemplary results are presented as IC50 values for compounds of the disclosure in Table 1 and for comparator compounds in Table 2. In Tables 1 and 2, “A” represents an IC50 value of less than 100 nM, “B” represents an IC50 value of greater than or equal to 100 nM and less than 1 μM, and “C” represents an IC50 value of greater than or equal to 1 μM. The co-factors used for each kinase in the assays were as follows: CDK7: cyclin H and MNAT1; CDK2: cyclin A; CDK9: cyclin T1.
# [1] = biological target: T2, SET Human Serotonin Transporter (Homo sapiens, UniProt P31645); assay: 5-HT inhibition assay: Cerep SET Human Serotonin Transporter Binding (Antagonist Radioligand) Assay; details: test compound 10 μM, ligand [3H]imipramine 2 nM, 60 min at RT
# T2 construct: Cerep (Eurofins Discovery Services) 439
# Method: The 5-HT inhibition assay was performed according to the Cerep SET Human Serotonin Transporter Binding (Antagonist Radioligand) Assay, such as the assay described in www.eurofinsdiscoveryservices.com/catalogmanagement/viewitem//439, accessed Jul. 22, 2019. In some experiments, the assay information is as shown below:
# Ligand concentration: 2 nM; Non specific: imipramine (10 μM);
# Incubation: 60 min at RT;
# Control inhibitor: imipramine; and Test compound concentration: 10 μM. Exemplary results are presented as 5-HT % inhibition at 10 μM of compound for compounds of the disclosure in Table 1 and for comparator compounds in Table 2.
# [2] = Table 1, compounds of the disclosure
# T1 sequence (P50613 whole entry): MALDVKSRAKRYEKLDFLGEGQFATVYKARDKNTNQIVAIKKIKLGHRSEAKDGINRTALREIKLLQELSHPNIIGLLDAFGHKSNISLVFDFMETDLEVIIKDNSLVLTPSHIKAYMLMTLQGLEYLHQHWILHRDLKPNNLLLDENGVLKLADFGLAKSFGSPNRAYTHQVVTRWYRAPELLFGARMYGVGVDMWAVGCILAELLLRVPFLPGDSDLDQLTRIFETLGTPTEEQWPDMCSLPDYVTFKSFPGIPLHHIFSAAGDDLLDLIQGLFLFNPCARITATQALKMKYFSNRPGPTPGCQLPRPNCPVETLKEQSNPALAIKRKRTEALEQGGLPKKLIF
# T1 sequence (P51946 whole entry partner): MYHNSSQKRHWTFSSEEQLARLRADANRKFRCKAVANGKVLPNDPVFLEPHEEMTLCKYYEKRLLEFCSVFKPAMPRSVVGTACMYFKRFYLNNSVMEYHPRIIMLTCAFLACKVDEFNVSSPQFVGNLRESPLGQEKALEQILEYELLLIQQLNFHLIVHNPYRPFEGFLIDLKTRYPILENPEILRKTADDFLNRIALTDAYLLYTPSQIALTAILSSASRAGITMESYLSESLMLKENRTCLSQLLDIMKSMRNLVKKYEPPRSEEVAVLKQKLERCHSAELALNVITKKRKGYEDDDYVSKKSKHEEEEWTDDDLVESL
# T1 sequence (P51948 whole entry partner): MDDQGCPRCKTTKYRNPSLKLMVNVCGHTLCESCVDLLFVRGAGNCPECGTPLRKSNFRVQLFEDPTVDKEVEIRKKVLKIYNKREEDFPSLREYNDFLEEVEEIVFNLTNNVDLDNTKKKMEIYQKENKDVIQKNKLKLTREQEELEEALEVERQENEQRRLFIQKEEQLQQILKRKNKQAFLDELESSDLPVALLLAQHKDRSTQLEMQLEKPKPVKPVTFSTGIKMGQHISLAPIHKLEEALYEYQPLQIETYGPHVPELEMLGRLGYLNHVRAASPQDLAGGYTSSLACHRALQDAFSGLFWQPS
# T2 sequence (P31645 whole entry): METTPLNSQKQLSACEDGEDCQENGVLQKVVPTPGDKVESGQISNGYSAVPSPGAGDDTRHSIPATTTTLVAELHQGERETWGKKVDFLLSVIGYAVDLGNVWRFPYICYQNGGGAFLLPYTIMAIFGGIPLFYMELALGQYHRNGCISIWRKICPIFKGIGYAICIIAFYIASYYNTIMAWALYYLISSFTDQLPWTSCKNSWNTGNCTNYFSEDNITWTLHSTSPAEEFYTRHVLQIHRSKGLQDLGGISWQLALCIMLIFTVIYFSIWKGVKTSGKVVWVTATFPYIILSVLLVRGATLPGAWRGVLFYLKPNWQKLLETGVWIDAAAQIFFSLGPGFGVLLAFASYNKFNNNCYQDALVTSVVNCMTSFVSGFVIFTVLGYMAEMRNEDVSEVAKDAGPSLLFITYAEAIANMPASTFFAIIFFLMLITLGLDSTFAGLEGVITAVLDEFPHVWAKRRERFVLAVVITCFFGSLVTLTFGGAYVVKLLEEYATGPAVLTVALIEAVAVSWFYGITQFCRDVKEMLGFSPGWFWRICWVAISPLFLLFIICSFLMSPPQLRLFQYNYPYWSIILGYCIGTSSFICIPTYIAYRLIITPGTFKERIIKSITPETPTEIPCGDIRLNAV
Structure (SMILES),"IC50 (CDK7: cyclin H and MNAT1; Table 2, comparator compounds) [nM]","inhibition at 10 µM ([1]; Table 2, comparator compounds) [%]",IC50 (CDK7: cyclin H and MNAT1; [2]) [nM],inhibition at 10 µM ([1]; Table 1) [%]
C=CC(=O)N1CCC[C@H](C(=O)Nc2n[nH]c3c2CN(C(=O)N[C@H](CN(C)C)c2ccccc2)C3(C)C)C1 [Compound C-5],< 100,94.3,–,–
C=CC(=O)Nc1ccc(C(=O)Nc2cccc(C(=O)Nc3n[nH]c4c3CN(C(=O)N[C@H](CN(C)C)c3ccccc3)C4(C)C)c2)cc1 [Compound C-6],< 100,99.6,–,–
C=CC(=O)Nc1ccc(C(=O)Nc2n[nH]c3c2CN(C(=O)N[C@H](CN(C)C)c2ccccc2)C3(C)C)nc1 [Compound C-10],< 100,98.3,–,–
C=CC(=O)Nc1ccc(C(=O)Nc2n[nH]c3c2CN(C(=O)N[C@H](CN(C)C)c2ccccc2)C3(C)C)cc1C(F)(F)F [II-2],< 100,98.1,–,–
C=CC(=O)Nc1ccc(C(=O)Nc2n[nH]c3c2CN(C(=O)N[C@H](CN(C)C)c2ccccc2)[C@@H]3C(C)C)cc1 [Compound C-7],< 100,74.5,–,–
C=CC(=O)Nc1ccc(C(=O)N2CCC(Nc3n[nH]c4c3CN(C(=O)N[C@H](CN(C)C)c3ccccc3)C4(C)C)CC2)cc1 [Compound C-4],< 100,96.4,–,–
"C=CC(=O)Nc1ccc(C(=O)Nc2nn(C(F)F)c3c2CN(C(=O)N[C@H](CN(C)C)c2ccccc2)C3(C)C)cc1 [Compound I-5, (S)-3-(4-acrylamidobenzamido)-1-(difluoromethyl)-N-(2-(dimethylamino)-1-phenylethyl)-6,6-dimethyl-4,6-dihydropyrrolo[3,4-c]pyrazole-5(1H)-carboxamide]",–,–,< 100,81.4
C=CC(=O)Nc1cccc(Nc2n[nH]c3c2CN(C(=O)N[C@H](CN(C)C)c2ccccc2)C3(C)C)c1 [Compound C-3],< 100,98.2,–,–
"C=CC(=O)Nc1ccc(C(=O)Nc2nn(C(F)F)c3c2CN(C(=O)N[C@H](CN(C)C)c2ccccc2)C3(C)C)nc1 [Compound I-33, (S)-3-(5-acrylamidopicolinamido)-1-(difluoromethyl)-N-(2-(dimethylamino)-1-phenylethyl)-6,6-dimethyl-4,6-dihydropyrrolo[3,4-c]pyrazole-5(1H)-carboxamide]",–,–,< 100,88.8
C=CC(=O)Nc1ccc(C(=O)Nc2n[nH]c3c2CN(C(=O)N[C@H](CN(C)C)c2ccccc2)C32CC2)cc1 [Compound C-2],< 100,95.3,–,–
"C=CC(=O)Nc1ccc(C(=O)Nc2nn(C)c3c2CN(C(=O)N[C@H](CN(C)C)c2ccccc2)C3(C)C)cc1 [Compound I-1, (S)-3-(4-acrylamidobenzamido)-N-(2-(dimethylamino)-1-phenylethyl)-1,6,6-trimethyl-4,6-dihydropyrrolo[3,4-c]pyrazole-5(1H)-carboxamide]",–,–,< 100,26.8
"C=CC(=O)Nc1ccc(C(=O)Nc2nn(C)c3c2CN(C(=O)N[C@H](CN(C)C)c2ccccc2)C3(C)C)nc1 [Compound I-8, (S)-3-(5-acrylamidopicolinamido)-N-(2-(dimethylamino)-1-phenylethyl)-1,6,6-trimethyl-4,6-dihydropyrrolo[3,4-c]pyrazole-5(1H)-carboxamide]",–,–,100 to 1000,50.6
C=CC(=O)Nc1ccc(C(=O)Nc2cccc(Nc3n[nH]c4c3CN(C(=O)N[C@H](CN(C)C)c3ccccc3)C4(C)C)c2)cc1 [Compound C-8],< 100,98,–,–
C=CC(=O)Nc1cccc(C(=O)Nc2ccc(Nc3n[nH]c4c3CN(C(=O)N[C@H](CN(C)C)c3ccccc3)C4(C)C)cc2)c1 [Compound C-1],< 100,98.3,–,–
